# Reference: patent US5266599A, “Use of (+)-1-[(3,4,5-trimethoxy)-benzyloxymethyl]-1-phenyl-N,N-dimethyl-n-propy lamine to increase gastric discharge in a subject” (priority 1989, dated 1993)
# “Also recorded” adds a separate entry of the source. Structures can show the parent of a compound that is named as a salt. Where two headings read alike, the source gives them in different places.
# Legend:
# kappa receptor = target: T1, kappa receptor (Cavia porcellus, UniProt P41144); assay: biochemical; details: CI50, inhibition of 50% of the binding of a specific radioactive ligand
# T1 construct: from tissue
# T1 sequence (P41144 whole entry): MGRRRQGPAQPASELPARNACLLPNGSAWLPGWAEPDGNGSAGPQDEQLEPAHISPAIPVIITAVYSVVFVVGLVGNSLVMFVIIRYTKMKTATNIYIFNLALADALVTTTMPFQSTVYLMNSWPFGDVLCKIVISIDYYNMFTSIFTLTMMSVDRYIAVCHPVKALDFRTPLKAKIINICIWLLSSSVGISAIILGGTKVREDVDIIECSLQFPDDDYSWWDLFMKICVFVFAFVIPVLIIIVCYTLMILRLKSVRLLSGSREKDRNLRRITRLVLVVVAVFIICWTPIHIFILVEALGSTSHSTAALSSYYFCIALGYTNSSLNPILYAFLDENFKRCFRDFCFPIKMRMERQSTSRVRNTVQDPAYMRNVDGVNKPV
# mu receptor = assay: Binding affinity to opiate receptor mu (inhibition of binding of a specific radioactive ligand); details: for IC50: read-out: CI50, inhibition of 50% of the binding of a specific radioactive ligand, mu receptor
# delta receptor = target: T2, delta receptor (Cavia porcellus, UniProt A0A286XTF2); assay: biochemical; details: CI50, inhibition of 50% of the binding of a specific radioactive ligand
# T2 construct: from tissue
# T2 sequence (A0A286XTF2 1-366): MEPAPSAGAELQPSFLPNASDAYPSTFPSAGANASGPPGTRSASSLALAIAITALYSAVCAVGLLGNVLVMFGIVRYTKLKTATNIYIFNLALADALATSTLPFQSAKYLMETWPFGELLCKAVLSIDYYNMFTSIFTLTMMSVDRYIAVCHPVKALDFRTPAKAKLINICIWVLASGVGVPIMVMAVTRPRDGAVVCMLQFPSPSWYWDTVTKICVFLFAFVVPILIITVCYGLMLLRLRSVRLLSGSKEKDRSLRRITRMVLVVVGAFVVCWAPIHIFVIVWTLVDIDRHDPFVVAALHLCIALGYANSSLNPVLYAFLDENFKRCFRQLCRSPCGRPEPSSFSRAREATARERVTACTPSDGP
# [1] = test system: abdominal cramps caused by acetic acid; assay: Analgesic activity in vivo, abdominal cramps caused by intraperitoneal acetic acid (derived from Koster); design: species or system mice
# [2] = test system: opiate receptors of the gastric mucous membrane; assay: Effect of the products on the gastric evacuation of solids in dogs; format: in vivo; details: for Variation in % of gastric evacuation of solids: oral capsule, one hour after meal; for effect on gastric discharge of solids (in words): one hour after administration
# Experimental: The principle of the test consists in measuring the gastric content of the animals one hour after eating a meal comprising 400 g of solid matter with 21.7% dry matter composed of:
# and 20 g of sheeps liver containing radiolabelled cyanocobalamine. The meal is consumed within about 5 minutes by the animals. After one hour, the gastric content is collected by means of a small tube placed approximately 10 cm into the pyloris before the experiment.
# The collected sample is weighed and homogenized. Its radioactivity is measured and the amount of the gastric discharge expressed in percentage is calculated according to the formula: [formula] in which: […]
# In practice, each test is carried out on three dogs and consists in administering to them, 20 minutes before eating the meal described above, a capsule containing the test product at a dose of […] per kg animal weight or a capsule placebo which serves to determine the control phenomenon of the discharge on the animal. The 3 dogs receive each treatment twice in random order. […] The meal is presented and ingested 20 minutes after the capsule containing the test product has been administered. The evacuation values of the solid phases are measured as described before and compared using the test of Mann and Whitney (U test). The difference in comparison with the control values is considered significant when p is<or =0.05.
# The effect of the test products is objectivised by the percentage variation calculated according to the relation: [formula]
# [3] = Solubility, hygroscopicity and stability of the addition salt; details: D-(-) tartaric acid salt
# [4] = test system: opiate receptors of the kappa type in the gastric mucous membrane; details: dog, in vivo, cited from earlier work
# duodenum of the rat = assay: tissue or blood; format: cell-based; details: for IC50: Rattus norvegicus
# mice = assay: Acute toxicity, oral, in male mice; format: in vivo
# Experimental: (§1) This toxicity has been studied orally in male mice. The test products have been administered at the rate of 2 ml of their aqueous solution per 100 g of animal weight. The animals are then observed for 3 hours after administration, then daily for fourteen days, when they are sacrificed and then an autopsy is carried out.
# (§2) The LD50 (lethal doses which cause the death of 50% of the animals) have been calculated according to the method of Reed J. L. and Muench H. (Am. J. Hyg. 1939, 27, p. 493).
# [5] = Acute toxicity, oral, in male mice; format: in vivo; details: mouse, in vivo, po, fourteen days
# Experimental: as §1, §2
# [6] = test system: opiate receptors mu, delta and kappa; format: binding
# gastric discharge = details: in vivo; cited from earlier work
# [7] = mu receptor, racemates uncorrected
# [8] = in vitro, compared with the (+) enantiomer or other receptors
structure (smiles),measurement,setting,value
"CCC(COCc1ccc(OC)c(OC)c1)(c1ccccc1)N(C)C (racemic) [Ex. 1 of U.S. Pat. No. 4,301,163, (+/-)1-[(3,4-dimethoxy)benzyloxymethyl]-1-phenyl-N,N-dimethyl-n-propylamine]",IC50,kappa receptor,1.11 µM
same,IC50,mu receptor; [7],1.11 µM
same,IC50,delta receptor,7.8 µM
"CCC(COCc1ccccc1)(c1ccccc1)N(C)C (racemic) [Ex. 3 of U.S. Pat. No. 4,301,163, (+/-)1-benzyloxymethyl-1-phenyl-N,N-dimethyl-n-propylamine]",IC50,kappa receptor,0.56 µM
same,mu receptor affinity (in words),mu receptor; [8],"just as, if not more active"
same,IC50,mu receptor; [7],0.19 µM
same,% analgesia,"[1]; 50 mg/kg, orally, mice",27.6%
same,IC50,delta receptor,14.7 µM
"CCC(COCc1cc(OC)c(OC)c(OC)c1)(NC)c1ccccc1 (racemic) [Ex. 12 of U.S. Pat. No. 4,301,163]",IC50,kappa receptor,2.28 µM
same,mu receptor affinity (in words),mu receptor; [8],"just as, if not more active"
same,IC50,mu receptor; [7],0.36 µM
same,% analgesia,"[1]; 50 mg/kg, orally, mice",44.0%
same,"% analgesia, corrected for racemic compound (multiplied by two)","[1]; 50 mg/kg, orally, mice, racemate correction",88.0%
same,IC50,delta receptor,2.25 µM
"COc1ccc(C(C)(COCc2ccc(Cl)cc2)N(C)C)cc1 (racemic) [Ex. 13 of U.S. Pat. No. 4,301,163, (+/-) 1-(p-chlorobenzyloxymethyl)-1-(p-methoxyphenyl)N,N-dimethyl-n-ethylamine]",IC50,kappa receptor,0.9 µM
same,mu receptor affinity (in words),mu receptor; [8],"just as, if not more active"
same,IC50,mu receptor; [7],0.25 µM
same,% analgesia,"[1]; 50 mg/kg, orally, mice",27.9%
same,IC50,delta receptor,4.39 µM
"CCC(COC(=O)c1cc(OC)c(OC)c(OC)c1)(c1ccccc1)N(C)C (racemic) [Trimebutine, (+/-)-2-dimethylamino-2-phenyl-n-butyl 3,4,5-trimethoxybenzoate]",IC50,kappa receptor,1.46 µM
same,mu receptor affinity (in words),mu receptor,"just as, if not more active"
same,IC50,mu receptor,0.146 µM
same,% analgesia,"[1]; mouse, in vivo",24.3%
same,"% analgesia, corrected for racemic compound (multiplied by two)","[1]; mouse, in vivo",48.6%
same,Variation in % of gastric evacuation of solids,[2]; 5 mg/kg,-4%
same,IC50,delta receptor,1.75 µM
"CCC(COCc1cc(OC)c(OC)c(OC)c1)(c1ccccc1)N(C)C (single isomer, unassigned) [D-(-) tartaric acid addition salt, (+) 1-[(3,4,5-trimethoxy)-benzyloxymethyl]-1-phenyl-N-N-dimethyl-n-propylamineD-(-)-tartrate]",hygroscopicity (in words),[3],without being hygroscopic
same,physico-chemical stability (in words),[3],physico-chemical stability necessary for its use
same,solubility in water (in words),[3],soluble in water
"CCC1C2Cc3ccc(O)cc3C1(CC)CCN2Cc1ccoc1 (single isomer, unassigned) [MR 2266]",inhibition of the gastric discharge effect of the product of the invention by the antagonist (in words),[2]; intravenous antagonist,inhibited
same,inhibition of the gastric discharge effect of kappa agonists (in words),[4],inhibited
"CCC(COCc1cc(OC)c(OC)c(OC)c1)(c1ccccc1)N(C)C (single isomer, unassigned; (+)) [(+) Enantiomer, (+) 1-[(3,4,5-trimethoxy)benzyloxymethyl]-1-phenyl-N,N-dimethyl-n-propylamine]",IC50,kappa receptor,0.232 µM
same,IC50,mu receptor; [7],0.196 µM
same,antispasmodic activity (in words),duodenum of the rat,activity slightly above that of papaverine; also recorded: possesses an antispasmodic activity
same,IC50,duodenum of the rat; read-out: molar concentration inhibiting 50% of the amplitude of spasms caused by barium chloride,17 µM
same,% analgesia,"[1]; mouse, in vivo",17.6%
same,times less analgesic than the compound of Example 12 of the U.S. Patent,"[1]; mouse, in vivo",~5 times
same,times less analgesic than the trimebutine,"[1]; mouse, in vivo",~3 times
same,analgesic effect (in words),"[1]; mouse, in vivo, po","virtually without any analgesic effect; also recorded: does not have ""in vivo"", as one would expect it, a central analgesic activity; also recorded: very little analgesic effect"
same,toxicity relative to the levorotatory antipode (in words),mice,about half as toxic
same,LD50 at 336 h,[5],407 mg/kg
same,"Variation in % of gastric evacuation of solids, with MR 2266",[2]; 0.25 mg/kg oral + MR 2266 0.1 mg per kg intravenous,+14%
same,"Variation in % of gastric evacuation of solids, with naloxone",[2]; 0.25 mg/kg oral + naloxone 0.1 mg per kg intravenous,+5%
same,Variation in % of gastric evacuation of solids,[2]; 0.25 mg/kg,+110%
same,effect on gastric discharge of solids (in words),[2]; listed as compound of the invention,increased discharge of solids in dogs
same,effect on gastric discharge of solids (in words),[2]; listed as product of the invention,doubles the gastric evacuation of the solids; also recorded: clearly shows an activity which encourages gastric discharge of solids in dogs
same,"receptor binding affinity to mu, delta and kappa (in words)",[6],"shows a receptor binding affinity to the receptors mu, delta and kappa; also recorded: shows an ""in vitro"" affinity with the opiate receptors mu, delta and kappa; also recorded: showing an affinity to the three receptors studied, with a non-negligible intensity"
same,IC50,delta receptor,0.54 µM
"CCC(COCc1cc(OC)c(OC)c(OC)c1)(c1ccccc1)N(C)C (single isomer, unassigned; (-)) [(-) Enantiomer, (-) 1-[(3,4,5-trimethoxy)benzyloxymethyl]-1-phenyl-N,N-dimethyl-n-propylamine]",IC50,kappa receptor,2.63 µM
same,IC50,mu receptor; [7],0.58 µM
same,LD50,"mice; fourteen days, 20160 min",255 mg/kg
same,Variation in % of gastric evacuation of solids,[2]; 0.25 mg/kg,+26%
same,effect on gastric discharge of solids (in words),[2]; listed as levorotatory enantiomer,four times less significant
same,IC50,delta receptor,12.3 µM
CN1CC[C@]23c4c5ccc(O)c4O[C@H]2[C@@H](O)C=C[C@H]3[C@H]1C5 [Morphine],antispasmodic activity (in words),"duodenum of the rat; barium chloride, duodenum of the rat, in vitro",inactive; also recorded: inactive at a concentration of more than 5 times greater than that of the product of the invention
COc1ccc(Cc2nccc3cc(OC)c(OC)cc23)cc1OC [Papaverine],IC50,"duodenum of the rat; read-out: IC50, inhibition of 50% of the amplitude of contractions",27.4 µM
CN1c2ccccc2C(c2ccccc2F)=NCC1CNC(=O)c1ccsc1 (stereo not shown) [Tifluadom],gastric discharge after oral administration (in words),[4]; po,increased gastric discharge; also recorded: modify the gastric discharge by their local action
CCN(CC)CCNC(=O)c1cc(Cl)c(N)cc1OC [metoclopramide],gastric discharge (in words),gastric discharge,possesses this property
